Laboratory results taken from patent US9399623B2, “Quinoline derivatives and their use in neurodegenerative diseases” (Merck Patent GmbH, priority 2014, dated 2016).

Tests used:
P2X7 [1] = molecular target: T1, P2X7 (Homo sapiens, UniProt Q99572); test: Pore permeation assay (YO PRO dye uptake, BzATP-induced); format: cell-based; set-up: expressed in transfected cells; host or cells: HEK293; conditions: HEK293 transfected with human P2X7 receptor; YO PRO dye 1 uM, BzATP 10 uM; read-out: hP2X7 IC50
T1 sequence (Q99572 1-595): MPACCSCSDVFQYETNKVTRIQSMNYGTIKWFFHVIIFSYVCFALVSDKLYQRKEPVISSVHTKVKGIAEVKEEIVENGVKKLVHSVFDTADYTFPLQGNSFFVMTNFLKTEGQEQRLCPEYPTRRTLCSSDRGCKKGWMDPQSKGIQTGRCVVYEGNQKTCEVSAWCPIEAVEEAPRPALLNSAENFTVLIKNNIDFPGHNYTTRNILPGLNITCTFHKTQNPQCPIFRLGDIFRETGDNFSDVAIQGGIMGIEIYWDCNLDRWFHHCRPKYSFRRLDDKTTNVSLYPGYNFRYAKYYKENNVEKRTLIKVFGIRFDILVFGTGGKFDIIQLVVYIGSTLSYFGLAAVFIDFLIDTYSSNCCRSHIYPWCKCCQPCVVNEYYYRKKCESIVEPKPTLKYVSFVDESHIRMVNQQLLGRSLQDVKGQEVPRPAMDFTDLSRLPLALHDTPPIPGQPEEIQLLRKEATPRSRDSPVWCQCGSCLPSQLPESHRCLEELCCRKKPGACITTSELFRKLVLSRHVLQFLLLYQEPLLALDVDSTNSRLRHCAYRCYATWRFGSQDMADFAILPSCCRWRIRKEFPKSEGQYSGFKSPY
Description: Agonist-induced pore formation was determined by measuring cellular uptake of YO PRO fluorescence dye in HEK293 transfected with human P2X7 receptor. A HEK293 cell over expressing human P2X7 was harvested using HQTase reagent to detach the cells from T75 cm flask. The harvested cells are centrifuged @ 1200 rpm for 5 min at room temperature. The viability of cells was determined by Trypan blue dye and the cells are plated @ 10,000 cell/well in 50 ul volume in a 384 W BD Poly lysine coated plate and incubated overnight at 37 C. After overnight incubation, the culture medium was replaced with 35 ul/well assay buffer (5 mM KCl, 0.1 mM CaCl2, 5 mM Glucose, 10 mM HEPES buffer pH7.4 containing 125 mM NaCl. The serial dilution of compounds was performed using Bravo liquid handling instrument and the compounds were added using Bravo to the cell assay plate starting at 2.5 uM with three dilutions for 10 points. The positive control inhibitor compound was added to column 23. The plate was shaken slowly on a plate shaker for 10 seconds. The cells were incubated with the compound for 20 minutes at room temperature. After the incubation period, YO PRO dye (1 uM) along with BzATP (10 uM) were added to cells at 10 ul/well. The plate was centrifuged at 1000 rpm for 5 seconds and incubated at room temperature for 30 minutes. The uptake of YO PRO dye into the cells was measured using Envision Fluorescence plate reader instrument (Perkin Elmer).

P2X7 [2] = molecular target: T1, P2X7; test: IL-1β release assay in THP-1 cells (sandwich ELISA); format: cell-based; set-up: release of mature IL-1β in the culture medium of THP-1 cells; endogenous in cells; host or cells: THP-1 cells (PMA-differentiated, LPS-primed); conditions: PMA, LPS primed, stimulated with 0.8 mM BzATP, mature IL-1β release, read-out: hTHP-1/IL-ib IC50
Description: The activation of P2X7 by ATP leads to a fast transient activation of cells resulting in influx of Ca^2+ followed by conversion of pro-IL-1β to active IL-1β. The functional activity of P2X7 compounds was measured by the release of mature IL-1β in the culture medium of THP-1 cells, detected by sandwich ELISA. Cells were maintained in complete growth medium (RPMI 1640+10% HI-FCS+2 mM L-glutamine+1×PS). […] THP-1 cells were harvested from the flask in 50 ml by centrifugation for 3 min at 100 g. The cells were resuspended to 2×10^5 cells/ml in medium supplemented with 0.5 μM PMA and incubated. The cells were washed and resuspended to 1.5×10^5 cells/ml in medium complemented with 10 ng/ml LPS, and the cells were primed for 4 h at 37° C., 5% CO2. After addition of 20 μL of prediluted test compounds, blank, standard and control reagents, cells were incubated for a further 20 min at 37° C. and stimulated with 0.8 mM BzATP for 30 minutes. The cells were centrifuged, supernatant was collected and the presence of mature IL-1β was detected using Dual human IL-1b kit following manufacturer's instruction. The tetrahydrobenzodiazepine analogs effectively modulated the activity of P2X7 in the cells as measured by the levels of pro-inflammatory cytokine IL-1β, which is released by the activation of P2X7 receptor.

O=C(NCC1(O)CCCC(F)(F)C1)c1c(Cl)ccc2nc(N3CC[C@H](F)C3)ccc12 (stereo partly drawn) [Compound 36, 6-Chloro-2-((S)-3-fluoropyrrolidin-1-yl)-quinoline-5-carboxylic acid (3,3-difluoro-1-hydroxycyclohexylmethyl)-amide]
IC50 (P2X7 [1]): 10 to 100 nM
IC50 (P2X7 [2]): 10 to 100 nM

O=C(NCC1(O)CCCC(F)(F)C1)c1c(Cl)ccc2nc(N3CC[C@@H](F)C3)ccc12 (stereo partly drawn) [Compound 37, 6-Chloro-2-((R)-3-fluoropyrrolidin-1-yl)-quinoline-5-carboxylic acid (3,3-difluoro-1-hydroxycyclohexylmethyl)-amide]
IC50 (P2X7 [1]): 10 to 100 nM
IC50 (P2X7 [2]): 10 to 100 nM

O=C(NCC1(O)CCCC(F)(F)C1)c1c(Cl)ccc2nc(N3CCC(F)C3)ccc12 (stereo not shown) [Compound 38, 6-Chloro-2-(3-fluoropyrrolidin-1-yl)-quinoline-5-carboxylic acid (3,3-difluoro-1-hydroxycyclohexylmethyl)-amide]
IC50 (P2X7 [1]): 10 to 100 nM
IC50 (P2X7 [2]): 10 to 100 nM

O=C(NCC1CCCC(F)(F)C1)c1c(Cl)ccc2nc(N3CCC(F)C3)ccc12 (stereo not shown) [Compound 39, 6-Chloro-2-(3-fluoropyrrolidin-1-yl)-quinoline-5-carboxylic acid (3,3-difluoro-cyclohexylmethyl)-amide]
IC50 (P2X7 [1]): 10 to 100 nM
IC50 (P2X7 [2]): 10 to 100 nM

O=C(NCC1CCC(F)(F)CC1)c1c(Cl)ccc2nc(N3CC[C@H](F)C3)ccc12 [Compound 41, 6-Chloro-2-((S)-3-fluoropyrrolidin-1-yl)-quinoline-5-carboxylic acid (4,4-difluoro-cyclohexylmethyl)-amide]
IC50 (P2X7 [1]): 10 to 100 nM
IC50 (P2X7 [2]): 10 to 100 nM

O=C(NCC1CCC(F)(F)CC1)c1c(Cl)ccc2nc(C3=CCCC3)ccc12 [Compound 42, 6-Chloro-2-cyclopent-1-enyl-quinoline-5-carboxylic acid (4,4-difluoro-cyclohexyl methyl)-amide]
IC50 (P2X7 [1]): 10 to 100 nM
IC50 (P2X7 [2]): 101 to 500 nM

CN(C)c1ccc2c(C(=O)NCC3CCC(F)(F)CC3)c(Cl)ccc2n1 [Compound 44]
IC50 (P2X7 [1]): 10 to 100 nM
IC50 (P2X7 [2]): 10 to 100 nM

O=C(NCC1CCC(F)(F)CC1)c1c(Cl)ccc2nc(N3CCC(CO)C3)ccc12 (stereo not shown) [Compound 45]
IC50 (P2X7 [1]): 10 to 100 nM
IC50 (P2X7 [2]): 10 to 100 nM

O=C(NCC1(O)CCCC(F)(F)C1)c1c(Cl)ccc2nc(N3CCC(F)(F)C3)ccc12 (stereo not shown) [Compound 46, 6-Chloro-2-(3,3-difluoropyrrolidin-1-yl)-quinoline-5-carboxylic acid (3,3-difluoro-1-hydroxycyclohexylmethyl)-amide]
IC50 (P2X7 [1]): 10 to 100 nM
IC50 (P2X7 [2]): 10 to 100 nM

O=C(NCC1CCC(F)(F)CC1)c1c(Cl)ccc2nc(C3CCOCC3)ccc12 [Compound 47, 6-Chloro-2-(tetrahydro-pyran-4-yl)-quinoline-5-carboxylic acid (4,4-difluoro-cyclohexyl methyl)-amide]
IC50 (P2X7 [1]): 10 to 100 nM
IC50 (P2X7 [2]): 101 to 500 nM

O=C(NCC1CCC(F)(F)CC1)c1c(Cl)ccc2nc(C3CCCCC3)ccc12 [Compound 48, 6-Chloro-2-cyclohexyl-quinoline-5-carboxylic acid (4,4-difluoro-cyclohexylmethyl)-amide]
IC50 (P2X7 [1]): 10 to 100 nM
IC50 (P2X7 [2]): 101 to 500 nM

O=C(NCC1CCC(F)(F)CC1)c1c(Cl)ccc2nc(N3CCC3)ccc12 [Compound 49, 2-(azetidin-1-yl)-6-Chloro-quinoline-5-carboxylic acid (4,4-difluoro-cyclohexylmethyl)-amide]
IC50 (P2X7 [1]): 10 to 100 nM
IC50 (P2X7 [2]): 10 to 100 nM

O=C(NCC1CCC(F)(F)CC1)c1c(Cl)ccc2nc(N3CCCC3)ccc12 [Compound 50]
IC50 (P2X7 [1]): 10 to 100 nM
IC50 (P2X7 [2]): 101 to 500 nM

CC(C)(C)OC(=O)N1CC=C(c2ccc3c(C(=O)NCC4CCC(F)(F)CC4)c(Cl)ccc3n2)CC1 [Compound 51, 4-{6-Chloro-5-[(4,4-difluoro-cyclohexylmethyl)-carbamoyl]-quinolin-2-yl}-3,6-dihydro-2H-pyridine-1-carboxylic acid tert-butyl ester]
IC50 (P2X7 [1]): 10 to 100 nM
IC50 (P2X7 [2]): 101 to 500 nM

CN(C)C1CCN(c2ccc3c(C(=O)NCC4CCC(F)(F)CC4)c(Cl)ccc3n2)C1 (stereo not shown) [Compound 52]
IC50 (P2X7 [1]): 10 to 100 nM
IC50 (P2X7 [2]): 101 to 500 nM

O=C(NCC1(O)CCCC(F)(F)C1)c1c(Cl)ccc2nc(N3CCC3)ccc12 (stereo not shown) [Compound 54, 2-(Azetidin-1-yl)-6-chloro-quinoline-5-carboxylic acid (3,3-difluoro-1-hydroxycyclohexylmethyl)-amide]
IC50 (P2X7 [1]): 10 to 100 nM
IC50 (P2X7 [2]): 101 to 500 nM

CCOC(=O)C1CCCN(c2ccc3c(C(=O)NCC4CCC(F)(F)CC4)c(Cl)ccc3n2)C1 (stereo not shown) [Compound 55, 1-{6-Chloro-5-[(4,4-difluoro-cyclohexylmethyl)-carbamoyl]-quinolin-2-yl}-piperidine-3-carboxylic acid ethyl ester]
IC50 (P2X7 [1]): 10 to 100 nM
IC50 (P2X7 [2]): > 1000 nM

O=C(NCC1CCC(F)(F)CC1)c1c(Cl)ccc2nc(N3CCC(CCO)C3)ccc12 (stereo not shown) [Compound 56]
IC50 (P2X7 [1]): 10 to 100 nM
IC50 (P2X7 [2]): 10 to 100 nM

O=C(NCC1CCC(F)(F)CC1)c1c(Cl)ccc2nc(N3CCC(F)(F)C3)ccc12 [Compound 58]
IC50 (P2X7 [1]): 10 to 100 nM
IC50 (P2X7 [2]): 101 to 500 nM

O=C(NCC1CCC(F)(F)CC1)c1c(Cl)ccc2nc(N3CCC(C(F)F)C3)ccc12 (stereo not shown) [Compound 59, 6-Chloro-2-(3-difluoromethyl-pyrrolidin-1-yl)-quinoline-5-carboxylic acid (4,4-difluoro-cyclohexylmethyl)-amide]
IC50 (P2X7 [1]): 10 to 100 nM
IC50 (P2X7 [2]): 101 to 500 nM

O=C(NCC1CCC(F)(F)CC1)c1c(Cl)ccc2nc(NCCCO)ccc12 [Compound 60, 6-Chloro-2-(3-hydroxy-propylamino)-quinoline-5-carboxylic acid (4,4-difluoro-cyclo hexyl methyl)-amide]
IC50 (P2X7 [1]): 10 to 100 nM
IC50 (P2X7 [2]): 101 to 500 nM

O=C(NCC1CCC(F)(F)CC1)c1c(Cl)ccc2nc(N3CC[C@@H](O)C3)ccc12 [Compound 61]
IC50 (P2X7 [1]): 10 to 100 nM
IC50 (P2X7 [2]): 101 to 500 nM

COCCCOc1ccc2c(C(=O)NCC3(O)CCC(F)(F)CC3)c(Cl)ccc2n1 [Compound 62, 6-Chloro-2-(3-methoxy-propoxy)-quinoline-5-carboxylic acid (4,4-difluoro-1-hydroxy-cyclohexyl methyl)-amide]
IC50 (P2X7 [1]): 10 to 100 nM
IC50 (P2X7 [2]): 101 to 500 nM

O=C(NCC1CCCC(F)(F)C1)c1c(Cl)ccc2nc(N3CCC(CCO)C3)ccc12 (stereo not shown) [Compound 63, 6-Chloro-2-(3-hydroxyethyl-pyrrolidin-1-yl)-quinoline-5-carboxylic acid (3,3-difluoro-cyclohexylmethyl)-amide]
IC50 (P2X7 [1]): 10 to 100 nM
IC50 (P2X7 [2]): 101 to 500 nM

O=C(NCC1CCC(F)(F)CC1)c1c(Cl)ccc2nc(CCCO)ccc12 [Compound 64, 6-Chloro-2-(3-hydroxy-propyl)-quinoline-5-carboxylic acid (4,4-Difluorocyclohexyl methyl)-amide]
IC50 (P2X7 [1]): 10 to 100 nM
IC50 (P2X7 [2]): 101 to 500 nM

O=C(NCC1(O)CCCCCC1)c1c(Cl)ccc2ncccc12 [Compound 65]
IC50 (P2X7 [1]): 10 to 100 nM
IC50 (P2X7 [2]): 101 to 500 nM
